Assay results: patent publication US20210369583A1, “COMPOSITIONS FOR PROVIDING SKIN CARE BENEFITS AND METHODS OF USE” (Danisco US Inc., priority 2018, published 2021)
Marks after values point to notes of the source that are not given here.

How the values were obtained:
Type in all cases: cell-based
[1] = tested on: living human skin explants; experiment: Biochemical assay of MDA (lipid peroxidation) on living human skin explants exposed to pollutants
Protocol: Product A (Table 11) was diluted in water to obtain the following products at concentrations: product P1=A at 4%, product P2=A at 2% and product P3=A at 1%.
(§1) 59 human skin explants of an average diameter of 14 mm (±1 mm) were prepared on an abdoplasty coming from a person. The explants were kept in survival in BEM culture medium at 37° C. in a humid, 5%-CO2 atmosphere.
(§2) The tested products were topically applied on the basis of 2 μl per cm^2 and spread using a small spatula twice a day (morning and evening) on day 0, 1, 2, 3 and 4.
(§3) On D4, the explants of the batches ML and PML were placed on the 3D grid with 900 μl of HBSS and placed into the PolluBox® system.
(§4) 3 mL of the solution <<ML>> (supplemented with 150 μl/ml of NaCl 0.9%) were exposed by vaporization for 1 hour and half, as shown in the figure below.
The MDA assay was realized with an enhanced method of the TBARs (Thiobarbituric Acid Reactive Species) assay. The MDA was assayed in HBSS medium by addition of TBARs solution (thiobarbituric acid, hydrochloric acid and tricholoroacetic acid) and placed in a water bath (80° C. for 15 minutes). A lot of substances (like glucose) which are not related with lipoperoxidation, react with thiobarbituric acid (ThioBarbituric Acid Reagents=TBARS), so to enhance the specificity of the assay, the MDA was extracted by a liquid/liquid extraction with butanol. The MDA in butanol was measured in spectrofluorimetry (excitation: 515 nm, emission: 550 nm) using a Tecan Infinite M200 Pro microplate reader. Using this assay, MDA contained in the culture medium BEMc on […] was measured for the 4 explants per batch. The MDA concentration was expressed in pmol of MDA/ml of the medium. Concerned batches: all batches on day 5, 4 explants per batch.
The average of the blank batch TJ5 was calculated (154.0 nmol/L). Then, for each explant of MLJ5, this average value was subtracted from […]. That corresponds to calculating the delta (increase) of MDA induced by ML for each explant compared to the average of the batch without ML, it is ΔML.
These average deltas were then compared to the average delta of MDA induction without treatment (ΔML).

[2] = tested on: Aryl hydrocarbon receptor (AhR); experiment: Immunostaining of AHR in human skin explants, image analysis
Protocol: as §1, §2, §3, §4
Aryl hydrocarbon receptor (AhR) is a transcriptional factor implicated in molecular response following the exposure of several compounds, including aromatic polycyclic hydrocarbon and ozone (Haarmann-Stemmann et al. 2012.JID 132:7-9; Afaq et al., 2009 JID 129:2396-2403). AhR is involved in activation of cytochrome family genes and CYP450 detoxification enzymes. In presence of pollution AhR is dissociated from the protein complex (HSP90), translocated to the nucleus, dimerized with ARNt, and binds to the DNA on target genes (Cytochrome family—activated in response to xenobiotics) (Ikuta et al., 2009. Biochemical pharmacology. 77:588-596). […] The immunostaining was performed using an automated slide processing system (Autostainer, Dako) and assessed by microscopical observation. Concerned batches: all the batches
The images analyses were performed on all the images (9 to 12 images) of each batch using the CellD storing software (Olympus Microscopy, Matrix Optics (M)SdnBhd, Taman Mayhang, Maylasia). For each batch of explants, the percentage of the region of interest covered by the staining (stained surface percentage) was determined by image analysis. […]
The ΔML for each treatment P was calculated using the same method to obtain the ΔPML, i.e. the variation of the Surf % induced by the pollutants exposure when treated with P. […]

[3] = tested on: human living skin explant; experiment: TUNEL assay (UV-induced DNA damage) on human living skin explants; conditions: UV irradiated
Protocol: (§5) human skin explants of an average diameter of 12 mm (±1 mm) were prepared on an abdoplasty coming from a person). The explants were kept in survival in BEM culture medium at 37° C. in a humid, 5%-CO2 atmosphere.
(§6) On day 0 (D0), day 1, day 2 and day 3 (3 hours before irradiation), the tested products were applied topically on surface of skin explants at the rate of 2 mg/cm^2, twice a day for D1 and D2 and once on DO and D3. […] The medium was half renewed (1 ml per well) on day 2.
(§7) On D3, the culture media of all the batches was replaced by HBSS solution (Hank's Balanced Saline Solution; 1 ml per explant). The batches “UV” were irradiated by UVA+ UVB using a UV simulator Vibert Lourmat RMX 3W with a dose of 18 J/cm2 of UVA (4 MED, minimal erythemal dose) and 0.3 J/cm2 of UVB (2 MED). The unirradiated batches were kept in HBSS in the dark. At the end of the irradiation the explants were put back in 2 mL of BEM medium.
(§8) After fixation for 24 hours in buffered formalin, the samples were dehydrated and impregnated in paraffin using a Leica PEARL dehydration automat. The samples were embedded using a Leica EG 1160 embedding station. 5-μm-thick sections were made using a Leica RM 2125 Minot-type microtome, and the sections were mounted on Superfrost® histological glass slides. The frozen samples were cut into 7-μm-thick sections using a Leica CM 3050 cryostat. Sections were then mounted on Superfrost® plus silanized glass slides. The microscopical observations were realized using a Leica DMLB or Olympus BX43 microscope. Pictures were digitized with a numeric DP72 Olympus camera with CellD storing software.
DNA oxidization is a type of damage that can be promoted by reactive oxygen species (ROS), generated by UV exposure. […] The staining was assessed by microscopical observation. Batches analyzed were T, TUV, P1UV, P2UV, P3UV at day 4 also referred to as TJ4, TUVJ4, P1UVJ4, P2UVJ4, P3UVJ4 (T=Control batch non treated non irradiated; TJ4=T at Day 4 (D4); TUV: control batch non treated UV irradiated; TUVJ4=[…] at Day 4; P1J4: product A 4% non irradiated at D4; P2J4: product A 2% non irradiated at D4; P3J4: product A 1% non irradiated at D4; P1UV: product A 4% UV irradiated; P1UVJ4: product A 4% UV irradiated at D4 P2UV: product A 2% UV irradiated; P2UVJ4: product A 2% UV irradiated at D4; P3UV: product A 1% UV irradiated; P3UVJ4: product A 1% UV irradiated at D4

[4] = tested on: human living skin explant; experiment: Immunostaining of carbonylated proteins (FTZ) on human living skin explants; conditions: UV irradiated
Protocol: as §5, §6, §7, §8
Protein carbonylation is a type of protein oxidation that can be promoted by reactive oxygen species (ROS), generated by UV exposure. FTZ marker assay was conducted by immunostaining in the living epidermis of human skin explant as follows: Carbonylated proteins were stained on frozen sections with the anti-carbonylated proteins probe (fluorescein-5-thiosemicarbazid-FTZ) (Lifetechnologies, Ref. F-121) diluted at 0.5 μM in MES-Na+ and incubated for 30 minutes in the dark and at room temperature. The staining was observed by epifluorescence and assessed by microscopical observations. Batches analyzed were T, TUV, P1UV, P2UV, P3UV at day 4 also referred to as TJ4, TUVJ4, P1UVJ4, P2UVJ4, P3UVJ4

[5] = tested on: human living skin explant; experiment: Cell viability of human living skin explants (UV study); conditions: non irradiated; day 4
Protocol: as §5, §6, §7, §8

[6] = after pollutants exposure, day 5

O=C(O)[C@@H]1CCCN1 [Combination P6, L-Proline]
MDA, variation ΔPML vs ΔML ([1]; MDA induction by pollutants, day 5): −62%*
reduction of the increase of MDA ([1]; after pollutant exposure (ΔPML vs ΔML)): 62%
MDA, variation PML vs ML [1, 6]: −18%*
AHR, variation PML vs ML [2, 6]: −15%**
decrease of AhR expression compared to batch TJ5 ([2]; without pollutants, D5): 63%
AHR, variation P vs T ([2]; without pollutants, day 5): −63%*
activity against UV-induced DNA damage [3]: totally inhibits the increase of DNA damage
effect on UV-induced carbonylated proteins [4]: slightly inhibits the formation of carbonylated proteins
Cell Viability, variation vs TJ4 [5]: ↔ (indicates no variation)
